Our source for the IC50 values is patent US11891365B2, “3-alkyl-4-amido-bicyclic [4,5,0] hydroxamic acids as HDAC inhibitors” (Valo Health, Inc., priority 2015, dated 2024).

The target of the assay is T1, Full length human recombinant HDAC6 protein (Homo sapiens, UniProt Q9UBN7).
T1 sequence (Q9UBN7 1-1215): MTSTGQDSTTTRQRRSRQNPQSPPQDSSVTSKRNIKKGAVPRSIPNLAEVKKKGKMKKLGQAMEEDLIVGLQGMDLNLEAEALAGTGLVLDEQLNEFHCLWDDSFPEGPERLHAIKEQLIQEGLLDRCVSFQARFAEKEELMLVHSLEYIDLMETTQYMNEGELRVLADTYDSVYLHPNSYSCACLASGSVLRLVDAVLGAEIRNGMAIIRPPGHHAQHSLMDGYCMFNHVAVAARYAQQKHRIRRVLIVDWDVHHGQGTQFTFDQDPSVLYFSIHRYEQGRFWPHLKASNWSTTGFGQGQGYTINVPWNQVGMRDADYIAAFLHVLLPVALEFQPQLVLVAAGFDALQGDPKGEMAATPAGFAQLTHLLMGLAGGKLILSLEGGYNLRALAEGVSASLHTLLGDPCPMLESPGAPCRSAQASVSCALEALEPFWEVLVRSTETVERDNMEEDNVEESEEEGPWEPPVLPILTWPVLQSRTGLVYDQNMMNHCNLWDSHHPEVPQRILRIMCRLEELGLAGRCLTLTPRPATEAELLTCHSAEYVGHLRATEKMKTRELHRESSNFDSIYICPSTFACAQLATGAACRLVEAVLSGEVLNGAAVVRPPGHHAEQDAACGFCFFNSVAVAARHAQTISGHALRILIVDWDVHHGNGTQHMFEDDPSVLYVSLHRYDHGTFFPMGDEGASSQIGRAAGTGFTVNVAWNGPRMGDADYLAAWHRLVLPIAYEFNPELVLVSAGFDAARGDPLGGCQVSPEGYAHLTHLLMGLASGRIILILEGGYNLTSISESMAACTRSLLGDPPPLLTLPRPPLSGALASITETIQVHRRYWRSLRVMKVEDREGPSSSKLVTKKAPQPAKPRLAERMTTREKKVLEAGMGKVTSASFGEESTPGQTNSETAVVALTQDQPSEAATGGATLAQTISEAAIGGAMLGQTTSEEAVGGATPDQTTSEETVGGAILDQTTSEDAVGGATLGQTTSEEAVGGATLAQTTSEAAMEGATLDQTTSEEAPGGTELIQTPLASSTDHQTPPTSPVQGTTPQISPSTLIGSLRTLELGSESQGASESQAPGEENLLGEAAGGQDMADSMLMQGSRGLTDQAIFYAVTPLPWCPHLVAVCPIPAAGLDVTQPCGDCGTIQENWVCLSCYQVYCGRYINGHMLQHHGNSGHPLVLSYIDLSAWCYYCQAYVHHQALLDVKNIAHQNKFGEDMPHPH
Briefly: In vitro histone deacetylase assay: enzymatic HDAC6 electrophoretic mobility shift assay. The settings on record: 1 nM enzyme, 2 μM peptide substrate RHKK(Ac)-NH2, 25° C., 12 concentrations; read-out: Inhibitory Concentration (IC50) Values against HDAC6, Activity Range. It is filed as biochemical. How it is done:
The enzymatic HDAC6 assay was performed using electrophoretic mobility shift assay. […] The enzymatic reactions were assembled in 384 well plates in a total volume of 25 μL in a reaction buffer composing: 100 mM HEPES, pH7.5, 25 mM KCl, 0.1% bovine serum albumin, 0.01% Triton X-100, 1% DMSO (from compounds) 2 μM of the fluorescently labeled peptide substrate and enzyme. The enzyme was added at a final concentration of 1 nM. The peptide substrate RHKK(Ac)—NH2 was used. The compounds were tested at 12 concentrations spaced by 3× dilution intervals. Negative control samples ([…] in the absence of inhibitor) and positive control samples (100%-inhibition) were assembled in replicates of four in each assay plate. The reactions were incubated at 25° C. and quenched by the addition of 45 μL of termination buffer (100 mM HEPES, pH 7.5, 0.01% Triton X-100, 0.05% SDS).
The terminated assay plates were analyzed on LabChip® 3000 microfluidic electrophoresis instrument (Perkin Elmer/Caliper Life Sciences). The fluorescence intensity of the electrophoretically separated de-acetylated product and substrate peptide was measured. Activity in each sample was determined as the product to sum ratio (PSR): P/(S+P), where P is the peak height of the product peptide and S is the peak height of the substrate peptide. Percent inhibition (Pinh) is determined using the following equation:
Pinh=(PSR0%−PSRinh)/(PSR0%−PSR100%)*100, where PSRinh is the product sum ratio in the presence of inhibitor, PSR0% is the average product sum ration in the absence of inhibitor and PSR100% is the average product sum ratio in 100%-inhibition control samples. The IC50 values of inhibitors were determined by fitting the %-inhibition curves with 4 parameter dose-response model using XLfit 4 software.
A general note: Mobility shift assays separate free from complexed probe on a gel.

`COCC1(C(=O)N2Cc3ccc(C(=O)NO)cc3OC[C@@H]2C)CC1` [(S)-N-hydroxy-4-(1-(methoxymethyl)cyclopropane-1-carbonyl)-3-methyl-2,3,4,5-tetrahydrobenzo[f][1,4]oxazepine-8-carboxamide]: the IC50 is not above 100 nM.
In the case of `CC(=O)N1CCC(C(=O)N2Cc3ccc(C(=O)NO)cc3OC[C@@H]2C)C1` (stereo partly drawn) [(3S)-4-(1-acetylpyrrolidine-3-carbonyl)-N-hydroxy-3-methyl-2,3,4,5-tetrahydrobenzo[f][1,4]oxazepine-8-carboxamide], the IC50 is not above 100 nM.
Consider `COC1CCC(C(=O)N2Cc3ccc(C(=O)NO)cc3OC[C@@H]2C)CC1` (single isomer, unassigned), for which the IC50 was not above 100 nM.
As for `COCC(C)(C)C(=O)N1CCOc2cc(C(=O)NO)ccc2C1` [N-hydroxy-4-(3-methoxy-2,2-dimethylpropanoyl)-2,3,4,5-tetrahydrobenzo[f][1,4]oxazepine-8-carboxamide], the IC50 is not above 100 nM.
Under `COCC1(C(=O)N2CCOc3cc(C(=O)NO)ccc3[C@@H]2C)COC1` [(S)-N-hydroxy-4-(3-(methoxymethyl)oxetane-3-carbonyl)-5-methyl-2,3,4,5-tetrahydrobenzo[f][1,4]oxazepine-8-carboxamide] stands not above 100 nM; under `CC(C)(C(=O)N1CCOc2cc(C(=O)NO)ccc2C1)n1cc(Cl)cn1` [4-(2-(4-chloro-1H-pyrazol-1-yl)-2-methylpropanoyl)-N-hydroxy-2,3,4,5-tetrahydrobenzo[f][1,4]oxazepine-8-carboxamide], not above 100 nM; under `O=CN1CCOc2cc(C(=O)NO)ccc2C1` [4-formyl-N-hydroxy-2,3,4,5-tetrahydrobenzo[f][1,4]oxazepine-8-carboxamide], not above 100 nM.
`C[C@H]1CN(C=O)Cc2ccc(C(=O)NO)cc2O1` [(S)-4-formyl-N-hydroxy-2-methyl-2,3,4,5-tetrahydrobenzo[f][1,4]oxazepine-8-carboxamide]: the IC50 is not above 100 nM.
Regarding `COCC1(C(=O)N2Cc3ccc(C(=O)NO)cc3OC[C@@H]2C)CCOCC1` [(S)-N-hydroxy-4-(4-(methoxymethyl)tetrahydro-2H-pyran-4-carbonyl)-3-methyl-2,3,4,5-tetrahydrobenzo[f][1,4]oxazepine-8-carboxamide], the IC50 was not above 100 nM.
Take `CC(C)(C(=O)N1CCOc2cc(C(=O)NO)ccc2C1)c1cccnc1` [N-hydroxy-4-(2-methyl-2-(pyridin-3-yl)propanoyl)-2,3,4,5-tetrahydrobenzo[f][1,4]oxazepine-8-carboxamide]: the IC50 fell in the range of 100 to 500 nM.
For the compound `O=C(NO)c1ccc2c(c1)OCCN(C(=O)C(c1ccccc1)C1CCCCC1)C2` (stereo not drawn) [4-(2-cyclohexyl-2-phenylacetyl)-N-hydroxy-2,3,4,5-tetrahydrobenzo[f][1,4]oxazepine-8-carboxamide], the IC50 is more than 500 nM.
Consider `COCC1(C(=O)N2Cc3ccc(C(=O)NO)cc3OC[C@@H]2C)CCC1` [(S)-N-hydroxy-4-(1-(methoxymethyl)cyclobutane-1-carbonyl)-3-methyl-2,3,4,5-tetrahydrobenzo[f][1,4]oxazepine-8-carboxamide], for which the IC50 was not above 100 nM.
`O=C(NO)c1ccc2c(c1)OCCN(C(=O)C1CC13CCNCC3)C2` (stereo not drawn) [N-hydroxy-4-(6-azaspiro[2.5]octane-1-carbonyl)-2,3,4,5-tetrahydrobenzo[f][1,4]oxazepine-8-carboxamide]: the IC50 is 100 to 500 nM.
Turning to `COC[C@@H]1COc2cc(C(=O)NO)ccc2CN1C(=O)C1CCOCC1` [(R)-N-hydroxy-3-(methoxymethyl)-4-(tetrahydro-2H-pyran-4-carbonyl)-2,3,4,5-tetrahydrobenzo[f][1,4]oxazepine-8-carboxamide], the IC50 was more than 500 nM.
The result for `C[C@H]1COc2cc(C(=O)NO)ccc2CN1C(=O)CC1CCCO1` (stereo partly drawn) [(3S)-N-hydroxy-3-methyl-4-(2-(tetrahydrofuran-2-yl)acetyl)-2,3,4,5-tetrahydrobenzo[f][1,4]oxazepine-8-carboxamide] reads not above 100 nM.
For the compound `COCCC(=O)N1Cc2ccc(C(=O)NO)cc2OC[C@@H]1C` [(S)-N-hydroxy-4-(3-methoxypropanoyl)-3-methyl-2,3,4,5-tetrahydrobenzo[f][1,4]oxazepine-8-carboxamide], the IC50 is not above 100 nM.
In the case of `C[C@@H]1CN(C=O)Cc2ccc(C(=O)NO)cc2O1` [(R)-4-formyl-N-hydroxy-2-methyl-2,3,4,5-tetrahydrobenzo[f][1,4]oxazepine-8-carboxamide], the IC50 is not above 100 nM.
Under `O=C(NO)c1ccc2c(c1)OCC1(CC1)N(C(=O)C1CCOCC1)C2` [N-hydroxy-4-(tetrahydro-2H-pyran-4-carbonyl)-4,5-dihydro-2H-spiro[benzo[f][1,4]oxazepine-3,1′-cyclopropane]-8-carboxamide] stands not above 100 nM.
Take `CC1(C)CC(C(=O)N2CCOc3cc(C(=O)NO)ccc3C2)CCO1` (stereo not drawn) [4-(2,2-dimethyltetrahydro-2H-pyran-4-carbonyl)-N-hydroxy-2,3,4,5-tetrahydrobenzo[f][1,4]oxazepine-8-carboxamide]: the IC50 lay in the range of 100 to 500 nM.
The result for `C[C@H]1COc2cc(C(=O)NO)ccc2CN1C(=O)C1(C)COC1` [(S)-N-hydroxy-3-methyl-4-(3-methyloxetane-3-carbonyl)-2,3,4,5-tetrahydrobenzo[f][1,4]oxazepine-8-carboxamide] reads not above 100 nM; that for `C[C@H]1COc2cc(C(=O)NO)ccc2CN1C(=O)C1CC1` [(S)-4-(cyclopropanecarbonyl)-N-hydroxy-3-methyl-2,3,4,5-tetrahydrobenzo[f][1,4]oxazepine-8-carboxamide], not above 100 nM; that for `COC1CCC(C(=O)N2CCOc3cc(C(=O)NO)ccc3C2)CC1` (stereo not drawn) [N-hydroxy-4-(4-methoxycyclohexane-1-carbonyl)-2,3,4,5-tetrahydrobenzo[f][1,4]oxazepine-8-carboxamide], not above 100 nM.
For the compound `COC[C@H]1CN(C=O)Cc2ccc(C(=O)NO)cc2O1` [(R)-4-formyl-N-hydroxy-2-(methoxymethyl)-2,3,4,5-tetrahydrobenzo[f][1,4]oxazepine-8-carboxamide], the IC50 is not above 100 nM.
In the case of `O=C(NO)c1ccc2c(c1)OCCN(C(=O)C1(Cn3cccn3)CC1)C2` [4-(1-((1H-pyrazol-1-yl)methyl)cyclopropane-1-carbonyl)-N-hydroxy-2,3,4,5-tetrahydrobenzo[f][1,4]oxazepine-8-carboxamide], the IC50 was not above 100 nM.
`O=C(NO)c1ccc2c(c1)OCCN(C(=O)c1ccc(Oc3ccccc3)cc1)C2` [N-hydroxy-4-(4-phenoxybenzoyl)-2,3,4,5-tetrahydrobenzo[f][1,4]oxazepine-8-carboxamide]: the IC50 was not above 100 nM.
In the case of `O=C(NO)c1ccc2c(c1)OCCN(C(=O)C1(c3ccccc3)CCC1)C2` [N-hydroxy-4-(1-phenylcyclobutane-1-carbonyl)-2,3,4,5-tetrahydrobenzo[f][1,4]oxazepine-8-carboxamide], the IC50 is not above 100 nM.
The result for `O=C(NO)c1ccc2c(c1)OCCN(C(=O)C1CC(F)(F)C1)C2` [4-(3,3-difluorocyclobutane-1-carbonyl)-N-hydroxy-2,3,4,5-tetrahydrobenzo[f][1,4]oxazepine-8-carboxamide] reads 100 to 500 nM.
